Reference: patent US20200289434A1, “RAPIDLY IMPROVING ENDOTHELIAL FUNCTION, REDUCING ARTERIAL STIFFNESS AND REVERSING CALCIFICATION OF BLOOD VESSELS BY ADMINISTERING VITAMIN K” (KAYDENCE PHARMA AS, priority 2019, published 2020)
Values joined by “and” are separate entries in the source; they are usually repeats but may differ in a detail not shown here. Identical values can stand only once.

Columns and labels:
[1] = tested on: ApoE/LDLR−/− mice; test: Example 3 second part: histological assessment of area and composition of atherosclerotic plaque in BCA; assay type: in vivo; settings: eight weeks
Text: For the determination of atherosclerotic plaque area and composition isolated brachiocephalic artery (BCA) was dissected, fixed in 4% buffered formalin, and embedded in paraffin. 5 μm-thick serial sections of BCA were collected from the proximal to distal part of the artery. Staining with Unna's orcein combined with Martius, Scarlet and Blue trichrome (OMSB) was applied on every tenth section (50 μm interval between each section) for quantitative analysis of atherosclerotic plaques. The areas of particular components of atherosclerotic plaque as well as artery lumen and wall were determined after Columbus-based software processing (FIG. 9) using specially-designed algorithm as described in Gajda M, Jasztal A, Banasik T, Jasek-Gajda E, Chlopicki S. Combined orcein and martius scarlet blue (OMSB) staining for qualitative and quantitative analyses of atherosclerotic plaques in brachiocephalic arteries in apoE/LDLR−/− mice. Histochem Cell Biol 2017. doi:10.1007/s00418-017-1538-8. The parameters analyzed include vessel wall area (VWA), internal vessel area (IVA=plaque area+lumen area), plaque area (expressed as percent of internal wall area: plaque/IWA), and lumen area (expressed as percent of internal wall area: lumen/IWA).

[2] = tested on: ApoE/LDLR−/− mice; test: Example 3 first part: MRI assessment of endothelium-dependent vasodilatation (FMD in FA, Ach in AA), young mice; assay type: in vivo
Experimental: Mice were randomly assigned to one of four experimental groups: control (untreated group) and three groups treated with vitamin K2 at a dose of 0.05, 0.5, and 5 mg/kg b.w./day, respectively. End-point measurements were performed at the age of 10-16 weeks.
(§1) Magnetic resonance imaging (MRI) experiments were performed using a 9.4T scanner (BioSpec 94/20 USR, Bruker, Germany) located in the Department of Magnetic Resonance Imaging, Institute of Nuclear Physics, Polish Academy of Sciences in Krakow. During the experiment, mice were anaesthetized using isoflurane (Aerrane, Baxter Sp. z o. o., Poland, 1.7 vol %) in an oxygen and air (1:2) mixture and imaged in the supine position. Activity of the heart, respiration, and body temperature (maintained at 37° C. using circulating warm water) were monitored using a Monitoring and Gating System (SA Inc., Stony Brook, N.Y., USA).
(§2) Endothelial function was assessed based on vascular responses to acetylcholine (Ach) administration in brachiocephalic artery (BCA), left common carotid artery (LCA) (FIGS. 6 A and B) and abdominal aorta (AA) (FIG. 6C) as well as to responses to increase in flow (flow-mediated dilatation, FMD) in femoral artery (FA) (FIG. 6D) as described in Bar A, Skorka T, Jasinski K, Sternak M, Bartel Z, Tyrankiewicz U, et al. Retrospectively-gated MRI for in vivo assessment of endothelium-dependent vasodilatation and endothelial permeability in murine models of endothelial dysfunction. NMR Biomed 2016; 29(8):1088.; Sternak M, Bar A, Adamski M G, Mohaissen T, Marczyk B, Kieronska A, et al. The Deletion of Endothelial Sodium Channel α (αENaC) Impairs Endothelium-Dependent Vasodilation and Endothelial Barrier Integrity in Endotoxemia in Vivo. Front Pharmacol 2018; 9:178. doi:10.3389/fphar.2018.00178.; and Bar A, Olkowicz M, Tyrankiewicz U, Kus E, Jasinski K, Smolenski R T, et al. Functional and Biochemical Endothelial Profiling In Vivo in a Murine Model of Endothelial Dysfunction; Comparison of Effects of 1-Methylnicotinamide and Angiotensin-converting Enzyme Inhibitor. Front Pharmacol 2017; 8:183. doi:10.3389/fphar.2017.00183.).
Vasomotor response was examined by comparing two time-resolved 3D images of the vessels prior to and 25 minutes after intraperitoneal Ach administration (Sigma-Aldrich, Poznan Poland: 50 μl, 16.6 mg/kg), as well as prior to and 5 minutes after vessel occlusion. Images were acquired using the cine IntraGate™ FLASH 3D sequence, reconstructed with the IntraGate 1.2.b.2 macro (Bruker). End-diastolic volumes of vessels were analyzed using ImageJ software 1.46r (NIH Bethesda, Md., USA) and scripts written in Matlab (MathWorks, Natick, Mass., USA). Imaging parameters included the following: repetition time (TR)—6.4 ms, echo time (TE)—1.4 ms, field of view (FOV)—30×30×5 mm3, matrix size—256×256×30, flip angle (FA)—30°, and number of accumulations (NA)—15, reconstructed to 7 cardiac frames. Total scan time was 10 minutes.

[3] = Example 3 second part: lipid profile, liver enzymes and blood count; settings: eight weeks
[4] = tested on: ApoE/LDLR−/− mice; test: Example 3 second part: MRI assessment of Ach-induced response in BCA and LCA, older mice; assay type: in vivo; settings: eight weeks, 24-week-old mice
Experimental: as §1
as §2, with “Front Pharmacol 2018; 9:178. doi:10.3389/fphar.2018.00178.; and Bar A, Olkowicz M, Tyrankiewicz U, Kus E, Jasinski K, Smolenski R T, et al. Functional and Biochemical Endothelial Profiling In Vivo in a Murine Model of Endothelial Dysfunction; Comparison of Effects of 1-Methylnicotinamide and Angiotensin-converting Enzyme Inhibitor. Front Pharmacol 2017; 8:183. doi:10.3389/fphar.2017.00183.).” left out
Vasomotor response was examined by comparing two time-resolved 3D images of the vessels prior to and 25 minutes after intraperitoneal Ach administration (Sigma-Aldrich, Poznan Poland: 50 μl, 16.6 mg/kg), as well as prior to and 5 minutes after vessel occlusion. […] End-diastolic volumes of vessels were analyzed using ImageJ software 1.46r (NIH Bethesda, Md., USA) and scripts written in Matlab (MathWorks, Natick, Mass., USA). […]

[5] = 0.05 mg/kg b.w./day, eight weeks
[6] = 0.05 mg/kg b.w./day, four weeks, 15-week-old mice

CC(C)=CCC/C(C)=C/CC/C(C)=C/CC/C(C)=C/CC/C(C)=C/CC/C(C)=C/CC/C(C)=C/CC1=C(C)C(=O)c2ccccc2C1=O [MK-7, menaquinone-7]
plaque and lumen area expressed as percent of IWA ([1]; either low or high dose): did not change
plaque size vs non-treated mice ([1]; low (0.03) or high (10 mg/kg b.w./day) dose): not different
decrease in vessel wall area (VWA) ([1]; low and high dose, 24-week-old mice): about 5%
internal wall area (IWA) ([1]; lower dose, not visible for entire vessel): decreased only in the middle part of the vessel
Ach response in AA, volume change [2, 5]: −0.65%
FMD in FA, volume change [2, 5]: 28.34%
Ach response in AA, volume change [2, 6]: −1.59%
FMD in FA, volume change [2, 6]: 33.26%
endothelial function (FMD-FA and ACH-AA) ([2]; 0.05 mg/kg b.w./day, two weeks): not sufficient to improve endothelial function
Ach response in AA, volume change ([2]; 0.5 mg/kg b.w./day, two weeks): 1.52%
FMD in FA, volume change ([2]; 0.5 mg/kg b.w./day, two weeks): 28.57%
Ach response in AA, volume change ([2]; 5 mg/kg b.w./day, two weeks): 0.16%
FMD in FA, volume change ([2]; 5 mg/kg b.w./day, two weeks): 26.55%
improvement in endothelial function compared with low dose for 4 weeks ([2]; 0.5 and 5 mg/kg b.w./day, four weeks): not superior
MPV ([3]; 0.03 mg/kg): 5.20 ± 0.33
MPV ([3]; 10 mg/kg): 4.97 ± 0.19
change in volume of BCA after Ach injection ([4]; high dose 10 mg/kg b.w/day): 3.12%
change in volume of LCA after Ach injection ([4]; high dose 10 mg/kg b.w/day): 4.45%
change in volume of LCA after Ach injection ([4]; low dose 0.03 mg/kg b.w/day, listed as vitamin K2, 0.03 mg/kg/day): ~−3% and −3.92%
